Test results as given in US20260042762A1 (Kymera Therapeutics, Inc., priority 2018, published 2026).

biological target: T1, MerTK (Homo sapiens, UniProt Q12866); test: MerTk degradation in Jurkat cells (Western blot); type: cell-based; conditions: Jurkat, 4 h, 0.001-1 μM, 4 hour-incubation at 37° C., read-out: Jurkat Max % MerTK Degradation
T1 construct: endogenous in cells; host or cells: Jurkat cells
T1 sequence (Q12866 21-999): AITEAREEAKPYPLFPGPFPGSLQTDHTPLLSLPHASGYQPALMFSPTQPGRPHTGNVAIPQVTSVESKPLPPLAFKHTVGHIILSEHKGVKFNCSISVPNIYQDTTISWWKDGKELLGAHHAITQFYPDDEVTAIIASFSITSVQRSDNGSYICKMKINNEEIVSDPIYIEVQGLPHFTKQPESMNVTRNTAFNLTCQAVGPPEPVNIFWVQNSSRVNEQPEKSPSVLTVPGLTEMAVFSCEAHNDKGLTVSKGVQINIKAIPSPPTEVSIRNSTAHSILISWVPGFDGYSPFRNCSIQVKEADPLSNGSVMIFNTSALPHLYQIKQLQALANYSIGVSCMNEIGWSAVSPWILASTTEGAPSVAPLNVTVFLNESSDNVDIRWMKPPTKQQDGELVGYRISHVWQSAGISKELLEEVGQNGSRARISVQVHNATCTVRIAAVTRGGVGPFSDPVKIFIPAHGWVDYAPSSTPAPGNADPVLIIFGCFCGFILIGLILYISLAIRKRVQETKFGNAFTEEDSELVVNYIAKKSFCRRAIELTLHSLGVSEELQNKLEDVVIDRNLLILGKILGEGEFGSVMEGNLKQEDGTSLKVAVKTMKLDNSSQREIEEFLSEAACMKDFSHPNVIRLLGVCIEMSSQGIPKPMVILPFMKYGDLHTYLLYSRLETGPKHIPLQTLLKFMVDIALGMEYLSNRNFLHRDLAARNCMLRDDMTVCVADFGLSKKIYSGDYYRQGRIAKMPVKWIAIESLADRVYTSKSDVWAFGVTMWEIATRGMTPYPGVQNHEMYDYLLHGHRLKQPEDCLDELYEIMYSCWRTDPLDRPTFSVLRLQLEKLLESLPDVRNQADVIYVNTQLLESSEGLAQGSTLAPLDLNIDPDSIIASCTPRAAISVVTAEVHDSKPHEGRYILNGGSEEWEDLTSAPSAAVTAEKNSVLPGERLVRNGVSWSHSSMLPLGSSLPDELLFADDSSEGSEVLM
Summary of the method: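 Jurkat cells treated 4 h at 37 °C with compound at 0.001-1 μM final. RIPA lysates quantified by BCA, then MerTK probed by Western blot against actin loading control with IR-dye secondaries and Odyssey imaging.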

SMILES | Dmax [%]
CCC[C@@H](C)Nc1ncc2c(n1)n([C@H]1CC[C@H](O)CC1)cc2[C@H]1CC[C@H](CN2CCN(CCCO[C@H]3CCN(Cc4ccc5c(c4)n(C)c(=O)n5C4CCC(=O)NC4=O)C3)CC2)CC1 (stereo partly drawn) [I-221, trans-3-(3-methyl-2-oxo-5-[[(3R)-3-[3-(4-[[(1r,4r)-4-[2-[(2S)-pentan-2-ylamino]-7-[4-hydroxycyclohexyl]pyrrolo[2,3-d]pyrimidin-5-yl]cyclohexyl]methyl]piperazin-1-y1)propoxy]pyrrolidin-1-yl]methyl]-1,3-benzodiazol-1-yl)piperidine-2,6-dione] | 20 to 50
CCCCNc1ncc2c(-c3ccc(CN4CCN(CCCOCCCc5ccc6c(c5)n(C)c(=O)n6[C@H]5CCC(=O)NC5=O)CC4)cc3)cn([C@H]3CC[C@H](O)CC3)c2n1 [I-69, 3-[5-(3-[3-[4-([4-[2-(butylamino)-7-[trans-4-hydroxycyclohexy1]-7H-pyrrolo[2,3-d]pyrimidin-5-yl]phenyl]methyl)piperazin-1-yl]propoxy]propyl)-3-methyl-2-oxo-2,3-dihydro-1H-1,3-benzodiazol-1-yl]piperidine-2,6-dione; bis(formic acid)] | > 50
C[C@H](CC(F)(F)F)Nc1ncc2c(-c3ccc(CN4CCN(CCCOC5CCN(Cc6ccc7c(c6)n(C)c(=O)n7C6CCC(=O)NC6=O)CC5)CC4)cc3)cn([C@H]3CC[C@H](O)CC3)c2n1 (stereo partly drawn) [I-196, 3-(3-methyl-2-oxo-5-[[4-(3-[4-[(4-[7-[trans-4-hydroxycyclohexyl]-2-[[(2R)-4,4,4-trifluorobutan-2-yl]amino]pyrrolo[2,3-d]pyrimidin-5-y1]phenyl)methyl]piperazin-1-yl]propoxy)piperidin-1-yl]methyl]-1,3-benzodiazol-1-yl)piperidine-2,6-dione] | > 50
Cc1ncsc1-c1ccc(CNC(=O)[C@@H]2C[C@@H](O)CN2C(=O)[C@@H](NC(=O)COCCOCCOCCN2CCN(Cc3ccc(-c4cn([C@H]5CC[C@H](O)CC5)c5nc(NCCC(F)(F)F)ncc45)cc3)CC2)C(C)(C)C)cc1 [I-166, (2S,4R)-1-[(2S)-3,3-dimethyl-2-(2-[2-[2-(2-[4-[(4-[7-[trans-4-hydroxycyclohexyl]-2-[(3,3,3-trifluoropropyl)amino]pyrrolo[2,3-d]pyrimidin-5-yl]phenyl)methyl]piperazin-1-yl]ethoxy)ethoxy]ethoxy]acetamido)butanoyl]-4-hydroxy-N-[[4-(4-methyl-1,3-thiazol-5-yl)phenyl]methyl]pyrrolidine-2-carboxamide] | > 50
CCC[C@H](C)Nc1ncc2c(n1)n([C@H]1CC[C@H](O)CC1)cc2[C@H]1CC[C@@H](CN2CCN(CCCO[C@H]3CCN(Cc4ccc5c(c4)n(C)c(=O)n5C4CCC(=O)NC4=O)C3)CC2)CC1 (stereo partly drawn) [I-220, 3-(3-methyl-2-oxo-5-[[(3S)-3-[3-(4-[[4-[2-[(2S)-pentan-2-ylamino]-7-[trans-4-hydroxycyclohexyl]pyrrolo[2,3-d]pyrimidin-5-yl]cyclohexyl]methyl]piperazin-1-y1)propoxy]pyrrolidin-1-yl]methyl]-1,3-benzodiazol-1-y1)piperidine-2,6-dione] | > 50
C[C@@H](Nc1ncc2c(-c3ccc(CN4CCN(CCCOCCCc5ccc6c(c5)n(C)c(=O)n6C5CCC(=O)NC5=O)CC4)cc3)cn([C@H]3CC[C@H](O)CC3)c2n1)C(F)F (stereo partly shown) [I-215] | > 50
Cc1ncsc1-c1ccc(CNC(=O)[C@@H]2C[C@@H](O)CN2C(=O)[C@@H](NC(=O)COCCOCCN2CCN(Cc3ccc(-c4cn([C@H]5CC[C@H](O)CC5)c5nc(NCCC(F)(F)F)ncc45)cc3)CC2)C(C)(C)C)cc1 [I-165, (2S,4R)-1-[(2S)-3,3-dimethyl-2-[2-[2-(2-[4-[(4-[7-[trans-4-hydroxycyclohexyl]-2-[(3,3,3-trifluoropropyl)amino]pyrrolo[2,3-d]pyrimidin-5-yl]phenyl)methyl]piperazin-1-yl]ethoxy)ethoxy]acetamido]butanoyl]-4-hydroxy-N-[[4-(4-methyl-1,3-thiazol-5-yl)phenyl]methyl]pyrrolidine-2-carboxamide] | < 20
